US5248677A, “Biogentic amine uptake inhibitors” (priority 1992, dated 1993)
Structures can show the parent of a compound that is named as a salt.

Legend:
Type in all cases: biochemical, rat (Male Sprague-Dawley)
norepinephrine uptake = test: NE (norepinephrine) uptake inhibition, synaptosomal preparation (hypothalamus); conditions: rat hypothalamus synaptosomes, 0.1 μM tritiated amine, 37° C., 4 minutes
Experimental: (§1) For the purpose of identifying compounds as biogenic amine uptake inhibitors capable of interacting with the uptake carrier, ligand-carrier binding assays were carried out as an initial sceen.
(§2) Male Sprague-Dawley derived rats, weighing about 180-250 g each (purchased from Sasco Animal Laboratories, Oregon, Wis.) were sacrificed by decapitation. The brains were immediately removed, placed on a chilled glass plate and dissected according to a modification of the method of Glowinski and Iversen (J. Glowinski and L. L. Iversen, J Neurochem, 1966, 13: 655-669). First, the rhombencephalon was separated by a transverse section and discarded. The rest of the brain was divided into two portions by making another transverse section at the level of the optic chiasma. The hypothalamus, which was used for norepinephrine uptake studies, was removed from the posterior part by using the anterior commissure as the horizontal reference point and a line between the posterior hypothalamus and mammillary bodies as the caudal limit. The striatum, which was used for dopamine uptake studies, was also dissected from the posterior portion using the external wall of the lateral ventricle as the internal limit and the corpus collosum as the external limit. The frontal parts of the striatum were removed from the anterior portion of the cerebrum and combined with the striatal tissue from the posterior segment. The cortex, which was used for serotonin uptake studies, was composed of the rest of the anterior portion of the cerebrum and the cortical surfaces removed from the posterior segment. The hypothalamus and the striatum each weighed about 100 mg or slightly less, whereas the cortex weighed up to 800 mg. The tissues were placed in a cold Potter-Elvehjem glass homogenizer with 5 (cortex) or 10 (hypothalamus) or 20 (striatum) volumes of ice-cold 0.32M sucrose, pH 7, and homogenized by hand. The homogenate was centrifuged (on a Multifuge®, American Scientific Products) at 2500 rpm for 10 minutes in a refrigerated room (~4° C.). The supernatant fraction containing the synaptosomes was decanted, mixed thoroughly and kept on crushed ice for use in the uptake studies.
(§3) Uptake studies were conducted according to the method of Snyder and Coyle (S. H. Snyder and J. T. Coyle, J Pharmacol Exp Ther, 1969, 165: 78-86) with minor modifications. Usually a 0.1 mL aliquot of the synaptosomal preparation was incubated in a mixture of 0.75 mL of modified Krebs-Ringerbuffer, 0.05 mL of the drug being tested, and 0.1 mL of a 1 μM solution of the labeled (tritiated) amine (final concentration 0.1 μM), for a total volume of 1 mL. The modified Krebs-Ringer bicarbonate buffer used in these studies contained 118 mM sodium chloride, 4 mM potassium chloride, 1.3 mM calcium chloride, 1.12 mM potassium dihydrogen phosphate, 1.2 mM magnesium sulfate and 24 mM sodium bicarbonate, with the addition of 5 mM glucose, 0.15 mM disodium EDTA, 12.5 μM nialamide and 1 mM ascorbic acid. Uptake was initiated by the addition of the tritiated amine and the mixture was incubated at 37° C. in a Dubnoff Metabolic Shaking Incubator for 4 minutes. A preincubation period was not included since it had been reported that results were similar with and without preincubation of the synaptosomal preparation (G. Vosmer, et al. Biochem Pharmacol, 1980, 24: 2557-2562). Control incubations without the test drug were conducted at 37° C. to determine total uptake and at 0° C. (in a crushed ice bath) to correct for the diffusion of the tritiated amine into the synaptosomes and/or binding.
(§4) Filtration was used to terminate uptake and collect the synaptosomes (C. A. Csernansky, et al. J Pharmacol Methods, 1985, 13: 187-191). In the filtration technique, the incubation mixture was diluted with ice-cold 0.9% aqueous sodium chloride solution and filtered through GF/B glass microfiber filters (Whatman) under reduced pressure. […]

5-HT (serotonin) uptake = 5-HT (serotonin) uptake inhibition, synaptosomal preparation (cortex); conditions: 5-hydroxytryptamine, rat cortex synaptosomes, 0.1 μM tritiated amine, 37° C., 4 minutes
Experimental: as §1, §2, §3, §4

dopamine uptake = test: DA (dopamine) uptake inhibition, synaptosomal preparation (striatum); conditions: rat striatum synaptosomes, 0.1 μM tritiated amine, 37° C., 4 minutes
Experimental: as §1, §2, §3, §4

Structure (SMILES) | IC50 (norepinephrine uptake) [nM] | IC50 (5-HT (serotonin) uptake) [nM] | IC50 (dopamine uptake) [nM] | IC50 (5-HT (serotonin) uptake; hydrochloride) [nM] | IC50 (dopamine uptake; hydrochloride) [nM] | IC50 (norepinephrine uptake; hydrochloride) [nM]
COc1cccc2c1CCC1C(Cc3ccccc3)NCC21 (stereo not drawn) [Example 21, cis-2,3,3a,4,5,9b-Hexahydro-6-methoxy-3-phenylmethyl-1H-benz[e]isoindole methanesulfonic acid salt] | 758 | 13100 | 5490 |  |  | 
COc1cccc2c1CCC1C2CN(C)C1Cc1ccccc1 (stereo not drawn) [Example 22, cis-2,3,3a,4,5,9 b-Hexahydro-6-methoxy-2-methyl-3-phenylmethyl-1H-benz[e]isoindole methanesulfonic acid salt] | 60 | 3440 | 368 |  |  | 
CCN1CC2c3cccc(OC)c3CCC2C1Cc1ccccc1 (stereo not drawn) [Example 23, cis-2-Ethyl-2,3,3a,4,5,9 b-hexahydro-6-methoxy-3-phenylmethyl-1H-benz[e]isoindole methanesulfonic acid salt] | 28 | 1430 | 141 |  |  | 
COc1cccc2c1CCC1C2CN(C)C1Cc1cccc(F)c1 (stereo not drawn) [Example 24, cis-3-(3-Fluorophenyl)methyl-2,3,3a,4,5,9b-hexahydro-6-methoxy-2-methyl-1H-benz[e]isoindole hydrochloride] | 104 | 2470 | 170 |  |  | 
CCN1CC2c3cccc(OC)c3CCC2C1Cc1cccc(F)c1 (stereo not drawn) [Example 25, cis-2-Ethyl-3-(3-fluorophenyl)methyl-2,3,3a,4,5,9b-hexahydro-6-methoxy-1H-benz[e]isoindole hydrochloride] | 27 | 1900 | 197 |  |  | 
COc1ccc2c(c1)CCC1C(Cc3cccc(F)c3)NCC21 (stereo not drawn) [Example 26, trans-3-(3-Fluorophenyl)methyl-2,3,3a,4,5,9b-hexahydro-7-methoxy-1H-benz[e]isoindole hydrochloride] | 603 | 2260 | 9040 |  |  | 
COc1ccc2c(c1)CCC1C2CN(C)C1Cc1cccc(F)c1 (stereo not drawn) [Example 27, trans-3-(3-Fluorophenyl)methyl-2,3,3a,4,5,9b-hexahydro-7-methoxy-2-methyl-1H-benz[e]isoindole hydrochloride] | 189 |  |  | 2080 | 4590 | 
COc1ccc2c(c1)CCC1C2CN(C)C1Cc1cccc(F)c1 (stereo not drawn) [Example 28, cis-3-(3-Fluorophenyl)methyl-2,3,3a,4,5,9b-hexahydro-7-methoxy-2-methyl-1H-benz[e]isoindole hydrochloride] |  |  |  | 1870 | 213 | 78
COc1ccc2c(c1OC)CCC1C(Cc3ccccc3)NCC21 (stereo not drawn) [Example 31, hydrochloride] | 592 | 14000 | 5420 |  |  | 
COc1ccc2c(c1OC)CCC1C2CN(C)C1Cc1ccccc1 (stereo not drawn) [Example 32, cis-6,7-Dimethoxy-2,3,3a,4,5,9b-hexahydro-2-methyl-3-phenylmethyl-1H-benz[e]isoindole hydrochloride] | 113 | 12700 | 169 |  |  | 
CN1CC2c3ccc4c(c3CCC2C1Cc1cccc(F)c1)OCO4 (stereo not drawn) [Example 36, trans-3-(3-Fluorophenyl)methyl-2,3,3a,4,5,9b-hexahydro-2-methyl-6,7-methylenedioxy-1H-benz[e]isoindole methanesulfonic acid salt] | 62 | 964 | 952 |  |  | 
COc1ccc(C)c2c1CCC1C2CN(C)C1Cc1ccccc1 (stereo not drawn) [Example 38, cis-2,9-Dimethyl-2,3,3a,4,5,9b-hexahydro-6-methoxy-3-phenylmethyl-1H-benz[e]isoindole hydrochloride] | 261 | 3570 | 1330 |  |  | 
COc1ccc2c(c1)CCC1CC(Cc3ccccc3)N(C)CC21 (stereo not drawn) [Example 72, cis-8-Methoxy-2-methyl-1,2,3,4,4a,5,6,10b-octahydro-3-phenylmethyl-benz[f]isoquinoline hydrochloride] | 64 | 5750 | 1010 |  |  | 
